In patent publication US20160077084A1, “AMPHIBIAN OOCYTE OR EMBRYO BIOASSAY” (THE BOARD OF TRUSTEES OF THE UNIVERSITY OF ARKANSAS, priority 2013, published 2016):
“Also recorded” adds a separate entry of the source.

Experiments:
Xenopus oocytes [1] = test: Xenopus oocyte bioassay: progesterone-induced oocyte maturation (GVBD); assay type: cell-based
Experimental: (§1) Oocyte maturation was monitored at regular intervals using a high content image capture procedure. Immature stage VI Xenopus oocytes were transferred to wells of a flat bottom 96-well plate containing about 178 μL of L15 culture media. The oocytes were transferred using wide mouth 200 μL pipette tips with minimal transfer of culture medium (e.g., about 20 μL). Generally, the oocytes oriented with the dark-pigmented animal hemisphere facing up due to the higher density of the yolk-containing vegetal hemisphere. Incorrectly orientated oocytes were gently manipulated using a drawn-out capillary tube or other tool to rotate them into the correct orientation. […] The oocytes were incubated for about 16 hours (i.e., overnight) at 16-25° C. in the presence of 1% DMSO (i.e., 2 μL of 100% DMSO).
Oocyte maturation was stimulated by the addition of progesterone. For this, 2 μL of 1000× stock solution (2 mg/mL in ethanol) was added to the appropriate wells to yield a final concentration of 2 μg/mL (although other concentrations of progesterone may be employed). The 96-well plate was imaged from the top-down (see FIG. 4E) using a 36-megapixel Nikon D800 SLR camera with an AF Micro Nikkor 60 mm, f/2.8 lens, mounted on a dedicated copy stand (with adjustable flanking light sources).
The plate was imaged prior to and after addition of progesterone (i.e., images were taken at regular intervals over a period of 7 hours). Oocyte maturation was phenotypically assessed by the appearance of a white spot at the animal pole of the oocyte. The white spot is due to migration of the germinal vesicle towards the animal pole prior to germinal vesicle breakdown (GVBD). The high resolution images were digitally zoomed after capture to analyze the maturation status of oocytes in individual wells of the plate (FIGS. 4A-D).
The Xenopus oocyte bioassay was used to screen a collection of about 2000 low molecular weight small molecules. Oocytes were distributed among multi-well plates essentially as described above in Example 1. The test compounds were dissolved in DMSO to make 100× stock solutions. The test compounds were added to the appropriate wells at a final concentration of 100 μM (and 1% DMSO). No drug control oocytes were exposed to 1% DMSO only. Sixteen hours later, progesterone was added to the appropriate wells, with the first and last wells of each plate containing the no drug control oocytes. The rate of maturation in the first and last wells served as an intra-assay control for time taken for progesterone addition across each multiwell plate. The plates were imaged essentially as described above in Example 1.

MCF-7 or MDA MB231 cells = test: General cell viability of breast cancer cells; assay type: cell-based; conditions: 0.5 μM dose
SHSY5Y = test: Neurosphere formation, neuroblastoma cell line SHSY5Y; assay type: cell-based; conditions: lowest dose tested 0.5 μM (FIG. 11A)
Experimental: (§2) The activity of the three test compounds to inhibit neurosphere formation was also tested in a neuroblastoma cell line SHSY5Y and a glioblastomoa cell line U87. All three compounds attenuated neurosphere formation in both cell lines, to varying degrees of efficacy (FIGS. 11A,B). […] None of the compounds affected cell viability.

MDA MB231 cells = test: Mammosphere formation (breast cancer stem cell self-renewal), MDA MB231; assay type: cell-based; conditions: compound first 3 days, scored day 14 (P2), 50, 5 and 0.5 μM
From the text: (§3) Mammosphere culture growth presents a useful indicator of the presence of breast cancer cells with stem cell-like properties. Breast cancer cell lines grown as mammospheres (under non-adherent plating conditions) recapitulate the three-dimensional organization of tumors. Importantly, assessment of stem cell self-renewal capacity can be achieved through dispersion of mammospheres to single cells and subsequent limited dilution replating. […] At day 7, mammospheres were collected, dispersed to single cells and replated at limiting dilution (P1). Spheroids were scored at day 14 (P2). Mammosphere forming units (MFUs) are defined as spheroid bodies >100 μm (MCF-7 cells) or >65 μm (MDA MB231 cells) diameter after 7 (P1) or 14 (P2) days growth in non-adherent culture.

U87 = test: Neurosphere formation, glioblastoma cell line U87; assay type: cell-based; conditions: lowest dose tested 0.5 μM (FIG. 11B)
Experimental: as §2

MCF-7 cells = test: Mammosphere formation (breast cancer stem cell self-renewal), MCF-7; assay type: cell-based; conditions: compound first 3 days, scored day 14 (P2), 50, 5 and 0.5 μM
From the text: as §3

MAP kinase (MAPK) = test: Western blot of treated oocytes, MAP kinase phosphorylation; assay type: cell-based, Xenopus
From the text: (§4) To begin to decipher the mechanism of action of the compounds that modified oocyte maturation, their effects on regulators of the meiotic cell cycle were examined. In particular, Musashi (Msi1) phosphorylation, Msi2 phosphorylation, MAP kinase phosphorylation, and Cdc2 (also called CDK1) dephosphorylation were examined in Xenopus oocytes treated with a modifying compound or only DMSO (i.e., control). The oocytes were processed for Western blot analysis using standard procedures, and the blots were probed with antibodies specific for phosphorylated or non-phosphorylated forms of the proteins of interest.

Xenopus oocytes [2] = test: Xenopus oocyte bioassay: oocyte maturation (GVBD) in the absence of progesterone; assay type: cell-based; conditions: screen at 100 μM
Experimental: as §1
Oocyte maturation was stimulated by the addition of progesterone. For this, 2 μL of 1000× stock solution (2 mg/mL in ethanol) was added to the appropriate wells to yield a final concentration of 2 μg/mL (although other concentrations of progesterone may be employed). […]
The plate was imaged prior to and after addition of progesterone (i.e., images were taken at regular intervals over a period of 7 hours). Oocyte maturation was phenotypically assessed by the appearance of a white spot at the animal pole of the oocyte. […]

Cdc2 (also called CDK1) = test: Western blot of treated oocytes, Cdc2 (CDK1) dephosphorylation / MPF activation; assay type: cell-based, Xenopus; conditions: for dephosphorylation of cdc2 (CDK1), activation of MPF: activators, no progesterone, PNR-5-46 5 μM, JVM-9 100 μM (FIG. 8A)
From the text: as §4

Xenopus oocytes [3] = test: Xenopus oocyte bioassay: oocyte maturation (GVBD) in the absence of progesterone; assay type: cell-based; conditions: for activation of GVBD: no progesterone (FIG. 6)
Musashi1 (Msi1) = test: Western blot of treated oocytes, Msi1 phosphorylation; assay type: cell-based, Xenopus
From the text: as §4

Musashi2 (Msi2) = test: Western blot of treated oocytes, Msi2 phosphorylation; assay type: cell-based, Xenopus; conditions: FIG. 8B
From the text: as §4

[4] = activators, no progesterone, PNR-5-46 5 μM, JVM-9 100 μM (FIG. 8A)
[5] = in response to progesterone (FIG. 9)

SMILES | general cell viability (MCF-7 or MDA MB231 cells) | neurosphere formation / stem cell self-renewal (SHSY5Y) | mammosphere formation relative to DMSO-treated control cells (MDA MB231 cells) | neurosphere formation / stem cell self-renewal (U87) | mammosphere formation relative to DMSO-treated control cells (MCF-7 cells) | phosphorylation of MAP kinase (MAP kinase (MAPK); [4]) | progesterone-independent oocyte maturation (activator) (Xenopus oocytes [2]) | dephosphorylation of cdc2 (CDK1), activation of MPF (Cdc2 (also called CDK1)) | further results
C/C1=C\CC[C@@]2(C)O[C@H]2[C@H]2OC(=O)[C@@H](CNCCCn3ccnc3)[C@@H]2CC1 [JVM-20] | no significant effect | particularly effective | effectively inhibited | particularly effective | effectively inhibited | – | – | – | effect on progesterone-stimulated maturation (Xenopus oocytes [1]; from 1 to 50 μM): accelerate; effect on progesterone-stimulated maturation (Xenopus oocytes [1]; high dose (100 μM)): inhibit
C/C1=C\CC[C@@]2(C)O[C@H]2[C@H]2OC(=O)[C@@H](CNc3nc4ccccc4[nH]3)[C@@H]2CC1 [JVM-9] | – | – | – | – | – | promoted phosphorylation | activation of maturation; also recorded: activators; also recorded: activated spontaneous oocyte maturation | dephosphorylation of cdc2 | activation of GVBD (Xenopus oocytes [3]; 10 μM): less effective; activation of GVBD (Xenopus oocytes [3]; 100 and 50 μM): activated GVBD
CC(=O)[C@H]1CC[C@H]2[C@@H]3CCC4=CC(=O)CC[C@]4(C)[C@H]3CC[C@]12C [progesterone, reference compound] | – | – | – | – | – | – | – | – | percent of oocytes that started GVBD (Xenopus oocytes [1]; by about 7 hours, progesterone-treated oocytes (FIG. 5)): About 35%
C/C1=C\CC[C@@]2(C)O[C@H]2[C@H]2OC(=O)/C(=C\c3cccc(Br)c3)[C@@H]2CC1 [PNR-5-46] | no significant effect | not | effectively inhibited | not | effectively inhibited | promoted phosphorylation | hormone-independent activation of maturation; also recorded: activators; also recorded: induced oocyte maturation | dephosphorylation of cdc2 | activation (phosphorylation) of Msi1 (Musashi1 (Msi1); not shown): triggered activation; activation (phosphorylation) of Msi2 (Musashi2 (Msi2)): triggered activation; EC50 (Xenopus oocytes [3]; Xenopus laevis, Oocyte, absence of progesterone, read-out: EC50 (activation of oocyte maturation)): 7 µM; percent of oocytes that initiated GVBD (Xenopus oocytes [3]; by about 4 hours, no progesterone, 100 μM PNR-5-46 (FIG. 5)): About 35%
C/C1=C\CC[C@@]2(C)O[C@H]2[C@H]2OC(=O)/C(=C\c3ccc(N)cc3)[C@@H]2CC1 [PNR-5-41] | – | Significant inhibition | did not | Significant inhibition | did not | – | – | – | phosphorylation of Msi1 (Musashi1 (Msi1); [5]): did not affect phosphorylation; phosphorylation of MAP kinase (MAP kinase (MAPK); [5]): did not affect phosphorylation; EC50 (Xenopus oocytes [1]; Xenopus laevis, Oocyte, progesterone-induced, p<0.05, n=5 vs DMSO only, read-out: EC50 (inhibition of progesterone-induced maturation)): 5 µM; effect on rate of progesterone-induced oocyte maturation (inhibitor) (Xenopus oocytes [1]; progesterone-induced): attenuation of progesterone-induced GVBD; also recorded: inhibitor; also recorded: inhibited progesterone-induced maturation in a dose-dependent manner; de-phosphorylation and activation of cyclin B/CDK1 (MPF) (Cdc2 (also called CDK1); [5]): blocked
